Laboratory results: patent publication US8410112B2, “Compounds useful as inhibitors of ATR kinase” (Vertex Pharmaceuticals Incorporated, priority 2008, dated 2013)

Molecular target: T1, full-length ATR (Homo sapiens, UniProt Q13535)
T1 construct: in the presence of 5 nM full-length ATR
Test: ATR Inhibition Assay (radioactive-phosphate incorporation)
Type: biochemical
Conditions: Ki(app); 5 nM full-length ATR, 10 μM ATP, 800 μM target peptide, 25° C.
Method in brief: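 Buffer was 50 mM Tris/HCl pH 7.5, 10 mM MgCl2, 1 mM DTT, with 5 nM enzyme, 10 μM [γ-33P]ATP and 800 μM target peptide at 25 °C. Compound was pre-incubated 10 min before ATP start, and the reaction was stopped after 24 h. Phosphocellulose filter capture; Ki(app) came from non-linear regression of background-corrected initial rates.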

T1 sequence (Q13535 whole entry): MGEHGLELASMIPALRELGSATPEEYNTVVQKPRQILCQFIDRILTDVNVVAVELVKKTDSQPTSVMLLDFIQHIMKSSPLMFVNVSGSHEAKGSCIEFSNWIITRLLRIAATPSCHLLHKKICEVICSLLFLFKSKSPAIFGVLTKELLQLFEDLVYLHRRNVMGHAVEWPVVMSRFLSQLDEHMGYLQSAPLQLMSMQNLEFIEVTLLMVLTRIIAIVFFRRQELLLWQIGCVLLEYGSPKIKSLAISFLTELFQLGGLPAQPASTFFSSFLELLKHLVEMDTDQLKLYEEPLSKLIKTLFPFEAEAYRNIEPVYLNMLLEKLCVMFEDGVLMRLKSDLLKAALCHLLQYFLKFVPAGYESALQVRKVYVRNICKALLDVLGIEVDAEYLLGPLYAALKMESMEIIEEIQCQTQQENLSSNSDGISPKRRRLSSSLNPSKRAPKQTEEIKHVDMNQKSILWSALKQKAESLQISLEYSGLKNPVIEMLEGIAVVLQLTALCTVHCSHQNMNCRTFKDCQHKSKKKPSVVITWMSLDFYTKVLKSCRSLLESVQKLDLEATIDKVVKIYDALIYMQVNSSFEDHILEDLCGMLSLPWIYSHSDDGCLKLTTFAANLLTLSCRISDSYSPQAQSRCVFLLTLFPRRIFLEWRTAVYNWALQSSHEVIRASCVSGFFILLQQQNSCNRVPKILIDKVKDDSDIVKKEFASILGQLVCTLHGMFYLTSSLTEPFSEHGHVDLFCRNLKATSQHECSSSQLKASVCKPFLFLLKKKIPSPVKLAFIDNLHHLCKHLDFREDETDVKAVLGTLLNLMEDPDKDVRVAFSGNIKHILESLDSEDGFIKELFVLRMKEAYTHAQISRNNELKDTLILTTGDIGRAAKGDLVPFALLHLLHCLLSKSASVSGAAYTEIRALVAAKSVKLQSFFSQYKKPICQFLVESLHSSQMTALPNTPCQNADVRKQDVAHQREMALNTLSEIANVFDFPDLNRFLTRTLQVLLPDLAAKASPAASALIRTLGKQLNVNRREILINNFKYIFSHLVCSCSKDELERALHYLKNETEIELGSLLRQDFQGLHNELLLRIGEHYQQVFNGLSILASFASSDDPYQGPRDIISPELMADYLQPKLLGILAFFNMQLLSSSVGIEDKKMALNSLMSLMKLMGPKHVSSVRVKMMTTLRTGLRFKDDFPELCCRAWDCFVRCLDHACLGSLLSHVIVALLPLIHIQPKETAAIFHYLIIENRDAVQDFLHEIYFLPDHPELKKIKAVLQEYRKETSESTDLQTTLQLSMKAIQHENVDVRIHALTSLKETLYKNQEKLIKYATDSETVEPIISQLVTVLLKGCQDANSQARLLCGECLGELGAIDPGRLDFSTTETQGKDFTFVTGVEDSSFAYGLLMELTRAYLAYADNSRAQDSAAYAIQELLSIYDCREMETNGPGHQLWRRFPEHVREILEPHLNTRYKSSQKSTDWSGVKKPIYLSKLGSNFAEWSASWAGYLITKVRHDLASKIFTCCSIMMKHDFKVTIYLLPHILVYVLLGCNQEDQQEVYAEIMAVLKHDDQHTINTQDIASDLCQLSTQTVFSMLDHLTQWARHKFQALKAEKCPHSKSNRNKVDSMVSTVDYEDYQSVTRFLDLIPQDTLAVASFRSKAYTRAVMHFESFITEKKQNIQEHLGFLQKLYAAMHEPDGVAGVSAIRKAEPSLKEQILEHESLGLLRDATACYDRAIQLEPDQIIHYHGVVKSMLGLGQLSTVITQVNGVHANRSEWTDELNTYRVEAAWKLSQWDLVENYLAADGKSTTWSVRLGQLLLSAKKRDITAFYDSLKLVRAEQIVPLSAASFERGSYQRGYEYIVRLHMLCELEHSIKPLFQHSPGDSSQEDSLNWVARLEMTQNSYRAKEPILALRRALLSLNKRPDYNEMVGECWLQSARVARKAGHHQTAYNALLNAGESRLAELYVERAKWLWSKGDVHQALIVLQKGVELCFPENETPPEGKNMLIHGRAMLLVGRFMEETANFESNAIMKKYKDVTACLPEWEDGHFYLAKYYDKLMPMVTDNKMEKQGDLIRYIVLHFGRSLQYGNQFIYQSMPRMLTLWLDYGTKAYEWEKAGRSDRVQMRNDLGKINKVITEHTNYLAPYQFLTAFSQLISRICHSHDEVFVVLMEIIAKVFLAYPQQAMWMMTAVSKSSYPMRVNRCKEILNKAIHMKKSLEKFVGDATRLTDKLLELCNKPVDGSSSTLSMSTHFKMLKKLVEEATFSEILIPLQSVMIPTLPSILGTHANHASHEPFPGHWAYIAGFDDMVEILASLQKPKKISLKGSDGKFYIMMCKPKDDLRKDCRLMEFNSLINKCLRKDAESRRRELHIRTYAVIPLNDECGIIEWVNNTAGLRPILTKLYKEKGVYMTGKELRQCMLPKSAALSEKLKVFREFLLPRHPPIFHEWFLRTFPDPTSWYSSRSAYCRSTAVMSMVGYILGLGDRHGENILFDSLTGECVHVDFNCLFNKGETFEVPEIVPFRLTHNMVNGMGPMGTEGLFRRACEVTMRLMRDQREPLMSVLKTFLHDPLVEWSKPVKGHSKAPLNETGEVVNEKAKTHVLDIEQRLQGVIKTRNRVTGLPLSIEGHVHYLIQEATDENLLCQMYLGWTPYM

SMILES | Ki [nM]
CN(C)CC(=O)N1CC=C(c2cnc(N)c(-c3nnc(-c4ccccc4)o3)n2)CC1 [Compound I-134, 1-(4-(5-amino-6-(5-phenyl-1,3,4-oxadiazol-2-yl)pyrazin-2-yl)-5,6-dihydropyridin-1(2H)-yl)-2-(dimethylamino)ethanone] | 100 to 1000
Nc1ncc(C2=CCN(C(=O)COc3ccccc3)CC2)nc1-c1nc2ccccc2[nH]1 [Compound I-137, 1-(4-(5-amino-6-(1H-benzo[d]imidazol-2-yl)pyrazin-2-yl)-5,6-dihydropyridin-1(2H)-yl)-2-phenoxyethanone] | 100 to 1000
Nc1ncc(C2=CCN(C(=O)c3ccccn3)CC2)nc1-c1nc2ccccc2[nH]1 [Compound I-139, (4-(5-amino-6-(1H-benzo[d]imidazol-2-yl)pyrazin-2-yl)-5,6-dihydropyridin-1(2H)-yl)(pyridin-2-yl)methanone] | < 100
COCCOCC(=O)N1CC=C(c2cnc(N)c(-c3nc4ccccc4[nH]3)n2)CC1 [Compound I-140, 1-(4-(5-amino-6-(1H-benzo[d]imidazol-2-yl)pyrazin-2-yl)-5,6-dihydropyridin-1(2H)-yl)-2-(2-methoxyethoxy)ethanone] | 100 to 1000
Nc1ncc(N2CCN(C(=O)Cc3ccccc3)CC2)nc1C(=O)Nc1ccccn1 [Compound I-141, 3-amino-6-(4-(2-phenylethanoyl)piperazin-1-yl)-N-(pyridin-2-yl)pyrazine-2-carboxamide] | 1000 to 10000
CC(=O)N1CCN(c2cnc(N)c(C(=O)Nc3ccccn3)n2)CC1 [Compound I-142, 3-amino-6-(4-ethanoylpiperazin-1-yl)-N-(pyridin-2-yl)pyrazine-2-carboxamide] | 1000 to 10000
Nc1ncc(N2CCN(C(=O)COc3ccccc3)CC2)nc1C(=O)Nc1ccccn1 [Compound I-143, 3-amino-6-(4-(2-phenoxyethanoyl)piperazin-1-yl)-N-(pyridin-2-yl)pyrazine-2-carboxamide] | 1000 to 10000
Nc1ncc(N2CCN(C(=O)C3CCCC3)CC2)nc1C(=O)Nc1ccccn1 [Compound I-144, 3-amino-6-(4-(cyclopentanecarbonyl)piperazin-1-yl)-N-(pyridin-2-yl)pyrazine-2-carboxamide] | 100 to 1000
Nc1ncc(N2CCN(C(=O)C3CCC3)CC2)nc1C(=O)Nc1ccccn1 [Compound I-145, 3-amino-6-(4-(cyclobutanecarbonyl)piperazin-1-yl)-N-(pyridin-2-yl)pyrazine-2-carboxamide] | 100 to 1000
Nc1ncc(N2CCN(C(=O)c3cccnc3)CC2)nc1C(=O)Nc1ccccn1 [Compound I-146, 3-amino-N-(pyridin-2-yl)-6-(4-(pyridine-3-carbonyl)piperazin-1-yl)pyrazine-2-carboxamide] | 1000 to 10000
COCC(=O)N1CCN(c2cnc(N)c(C(=O)Nc3ccccn3)n2)CC1 [Compound I-147, 3-amino-6-(4-(2-methoxyethanoyl)piperazin-1-yl)-N-(pyridin-2-yl)pyrazine-2-carboxamide] | 1000 to 10000
Nc1ncc(N2CCN(C(=O)c3ccccn3)CC2)nc1C(=O)Nc1ccccn1 [Compound I-148, 3-amino-N-(pyridin-2-yl)-6-(4-(pyridine-2-carbonyl)piperazin-1-yl)pyrazine-2-carboxamide] | 1000 to 10000
Nc1ncc(N2CCN(C(=O)c3c(F)cccc3F)CC2)nc1C(=O)Nc1ccccn1 [Compound I-149, 3-amino-6-(4-(2,6-difluorophenylcarbonyl)piperazin-1-yl)-N-(pyridin-2-yl)pyrazine-2-carboxamide] | 100 to 1000
CN(C)CC(=O)N1CCN(c2cnc(N)c(C(=O)Nc3ccccn3)n2)CC1 [Compound I-150, 3-amino-6-(4-(2-(dimethylamino)ethanoyl)piperazin-1-yl)-N-(pyridin-2-yl)pyrazine-2-carboxamide] | 1000 to 10000
COCCOCC(=O)N1CCN(c2cnc(N)c(C(=O)Nc3ccccn3)n2)CC1 [Compound I-151, 3-amino-6-(4-(2-(2-methoxyethoxy)ethanoyl)piperazin-1-yl)-N-(pyridin-2-yl)pyrazine-2-carboxamide] | 1000 to 10000
CCS(=O)(=O)N1CC=C(c2cnc(N)c(-c3nc4ccc(C)c(C)c4[nH]3)n2)CC1 [Compound I-152, 3-(6,7-dimethyl-1H-benzo[d]imidazol-2-yl)-5-(1-(ethylsulfonyl)-1,2,3,6-tetrahydropyridin-4-yl)pyrazin-2-amine] | 100 to 1000
CCS(=O)(=O)N1CC=C(c2cnc(N)c(-c3nc4ccc(F)c(F)c4[nH]3)n2)CC1 [Compound I-153, 3-(6,7-difluoro-1H-benzo[d]imidazol-2-yl)-5-(1-(ethylsulfonyl)-1,2,3,6-tetrahydropyridin-4-yl)pyrazin-2-amine] | < 100
CCS(=O)(=O)N1CC=C(c2cnc(N)c(-c3nc4cc(C)c(C)cc4[nH]3)n2)CC1 [Compound I-154, 3-(5,6-dimethyl-1H-benzo[d]imidazol-2-yl)-5-(1-(ethylsulfonyl)-1,2,3,6-tetrahydropyridin-4-yl)pyrazin-2-amine] | 100 to 1000
CCS(=O)(=O)N1CC=C(c2cnc(N)c(-c3nc4c(F)cccc4[nH]3)n2)CC1 [Compound I-155, 5-(1-(ethylsulfonyl)-1,2,3,6-tetrahydropyridin-4-yl)-3-(4-fluoro-1H-benzo[d]imidazol-2-yl)pyrazin-2-amine] | < 100
CCS(=O)(=O)N1CC=C(c2cnc(N)c(-c3nc4cc(C(C)(C)C)ccc4[nH]3)n2)CC1 [Compound I-156, 3-(5-tert-butyl-1H-benzo[d]imidazol-2-yl)-5-(1-(ethylsulfonyl)-1,2,3,6-tetrahydropyridin-4-yl)pyrazin-2-amine] | 1000 to 10000
CCS(=O)(=O)N1CC=C(c2cnc(N)c(-c3nc4cc(C)ccc4[nH]3)n2)CC1 [Compound I-157, 5-(1-(ethylsulfonyl)-1,2,3,6-tetrahydropyridin-4-yl)-3-(5-methyl-1H-benzo[d]imidazol-2-yl)pyrazin-2-amine] | < 100
CCS(=O)(=O)N1CC2CN(c3cnc(N)c(-c4nc5ccc(C)cc5[nH]4)n3)CC2C1 (centres unmarked) [Compound I-158, 5-(5-(ethylsulfonyl)hexahydropyrrolo[3,4-c]pyrrol-2(1H)-yl)-3-(6-methyl-1H-benzo[d]imidazol-2-yl)pyrazin-2-amine] | 100 to 1000

Now from value to compound:

Ki [nM] | SMILES
< 100 | CCCS(=O)(=O)N1CC=C(c2cnc(N)c(-c3nnc(-c4ccccc4)o3)n2)CC1 [Compound I-124, 3-(5-phenyl-1,3,4-oxadiazol-2-yl)-5-(1-(propylsulfonyl)-1,2,3,6-tetrahydropyridin-4-yl)pyrazin-2-amine]
< 100 | CC(=O)N1CC=C(c2cnc(N)c(-c3nnc(-c4ccccc4)o3)n2)CC1 [Compound I-125, 1-(4-(5-amino-6-(5-phenyl-1,3,4-oxadiazol-2-yl)pyrazin-2-yl)-5,6-dihydropyridin-1(2H)-yl)ethanone]
< 100 | Nc1ncc(C2=CCN(C(=O)COc3ccccc3)CC2)nc1-c1nnc(-c2ccccc2)o1 [Compound I-126, 1-(4-(5-amino-6-(5-phenyl-1,3,4-oxadiazol-2-yl)pyrazin-2-yl)-5,6-dihydropyridin-1(2H)-yl)-2-phenoxyethanone]
< 100 | Nc1ncc(C2=CCN(C(=O)C3CCCC3)CC2)nc1-c1nnc(-c2ccccc2)o1 [Compound I-127, (4-(5-amino-6-(5-phenyl-1,3,4-oxadiazol-2-yl)pyrazin-2-yl)-5,6-dihydropyridin-1(2H)-yl)(cyclopentyl)methanone]
< 100 | Nc1ncc(C2=CCN(C(=O)C3CCC3)CC2)nc1-c1nnc(-c2ccccc2)o1 [Compound I-128, (4-(5-amino-6-(5-phenyl-1,3,4-oxadiazol-2-yl)pyrazin-2-yl)-5,6-dihydropyridin-1(2H)-yl)(cyclobutyl)methanone]
< 100 | Nc1ncc(C2=CCN(C(=O)c3cccnc3)CC2)nc1-c1nnc(-c2ccccc2)o1 [Compound I-129, (4-(5-amino-6-(5-phenyl-1,3,4-oxadiazol-2-yl)pyrazin-2-yl)-5,6-dihydropyridin-1(2H)-yl)(pyridin-3-yl)methanone]
< 100 | COCC(=O)N1CC=C(c2cnc(N)c(-c3nnc(-c4ccccc4)o3)n2)CC1 [Compound I-130, 1-(4-(5-amino-6-(5-phenyl-1,3,4-oxadiazol-2-yl)pyrazin-2-yl)-5,6-dihydropyridin-1(2H)-yl)-2-methoxyethanone]
< 100 | CCC(CC)C(=O)N1CC=C(c2cnc(N)c(-c3nnc(-c4ccccc4)o3)n2)CC1 [Compound I-131, 1-(4-(5-amino-6-(5-phenyl-1,3,4-oxadiazol-2-yl)pyrazin-2-yl)-5,6-dihydropyridin-1(2H)-yl)-2-ethylbutan-1-one]
< 100 | Nc1ncc(C2=CCN(C(=O)c3ccccn3)CC2)nc1-c1nnc(-c2ccccc2)o1 [Compound I-132, (4-(5-amino-6-(5-phenyl-1,3,4-oxadiazol-2-yl)pyrazin-2-yl)-5,6-dihydropyridin-1(2H)-yl)(pyridin-2-yl)methanone]
< 100 | Nc1ncc(C2=CCN(C(=O)c3c(F)cccc3F)CC2)nc1-c1nnc(-c2ccccc2)o1 [Compound I-133, (4-(5-amino-6-(5-phenyl-1,3,4-oxadiazol-2-yl)pyrazin-2-yl)-5,6-dihydropyridin-1(2H)-yl)(2,6-difluorophenyl)methanone]
< 100 | COCCOCC(=O)N1CC=C(c2cnc(N)c(-c3nnc(-c4ccccc4)o3)n2)CC1 [Compound I-135, 1-(4-(5-amino-6-(5-phenyl-1,3,4-oxadiazol-2-yl)pyrazin-2-yl)-5,6-dihydropyridin-1(2H)-yl)-2-(2-methoxyethoxy)ethanone]
< 100 | CC(=O)N1CC=C(c2cnc(N)c(-c3nc4ccccc4[nH]3)n2)CC1 [Compound I-136, 1-(4-(5-amino-6-(1H-benzo[d]imidazol-2-yl)pyrazin-2-yl)-5,6-dihydropyridin-1(2H)-yl)ethanone]
< 100 | COCC(=O)N1CC=C(c2cnc(N)c(-c3nc4ccccc4[nH]3)n2)CC1 [Compound I-138, 1-(4-(5-amino-6-(1H-benzo[d]imidazol-2-yl)pyrazin-2-yl)-5,6-dihydropyridin-1(2H)-yl)-2-methoxyethanone]
